US20130171103A1, “METHODS FOR TREATING VIRAL CONDITIONS” (PTC Therapeutics, Inc., priority 2010, published 2013)
pIC50: −log10 of the molar value. Values joined by “and” are separate entries in the source; they are usually repeats but may differ in a detail not shown here. Equal entries are not always repeated.

What was measured:
HT1080 cells = assay: Cell cycle analysis by propidium iodide staining and flow cytometry; type: cell-based; settings: for effect on cell cycle distribution / % Cells In S-Phase: normoxic; for effect on cell cycle distribution: #10 0.3-100 nM, 1205 10 nM; for % Cells In S-Phase: HT1080 cells, 100 nM, 18 hours, DMSO control 17.3, >20% considered active
HT 1080 cells = assay: Kinetics of S-phase transit by BrdU incorporation into DNA; type: cell-based; settings: 18-hour treatment
Protocol: HT 1080 cells are exposed to BrdU (bromodeoxyuridine, a synthetic nucleoside that is an analogue of thymidine and is incorporated into DNA during the S phase of cell division) (FITC BrdU Flow Kit, BD Pharmingen catalog #552598). Cells are grown and treated as described in Section 9.3.1.3 above with the exception that one hour prior to harvesting by trypsinization, BrdU (final concentration 1 μM) is added to each culture for 1 hour. Cells actively replicating DNA during this brief time incorporate the BrdU into the DNA, which can then be quantified. BrdU content is quantified using the FITC BrdU Flow Kit as instructed by the manufacturer. The process includes fixation (paraformaldehyde) and DNA staining with 7-AAD (7-amino-actinomycin D) followed by incubation with a fluoro-tagged anti-BrdU antibody that specifically recognizes BrdU incorporated into DNA. Dual channel FACS analysis permits assessment of both the DNA content of individual cells and the rate of transit across the S-phase, which is assessed based upon BrdU incorporation over the one hour treatment period.

HT1080 spheroids = assay: 3-dimensional growth of HT1080 spheroids (BrdU/7-AAD FACS, morphology); type: cell-based
HCV genotype 1b replicon = assay: HCV subgenomic replicon assay, genotype 1b, standard cell culture; type: cell-based, hepatitis C virus
Adenovirus = Adenovirus CPE protection assay in HeLa cells; type: cell-based; settings: unidentified adenovirus, DNA
HSV-1 = HSV-1 CPE protection assay in Vero cells; type: cell-based, herpes simplex virus-1; settings: Human alphaherpesvirus 1, HSV-1, DNA
Influenza A = assay: microbe, parasite or virus in culture; type: cell-based; settings: MDCK
Parainfluenza = Parainfluenza CPE protection assay in Vero cells; type: cell-based, parainfluenza virus; settings: (−) RNA
RSV = RSV CPE protection assay in Vero cells; type: cell-based; settings: human respiratory syncytial virus
Dengue 2 = Dengue 2 CPE protection assay in Vero E6 cells; type: cell-based; settings: Dengue virus, Vero C1008, Dengue 2, (+) RNA
HIV-1 [1] = assay: HIV-1 CPE protection assay in MT-2 cells; type: cell-based; settings: Human immunodeficiency virus 1, MT2; HIV-1, Retro, MT-2, CPE protection
Protocol: (§1) The activity against HIV-1 was tested in MT2 cells and PBMCs in cell culture by preventing virus induced cytopathic effect and measuring viral p24 protein in the culture supernatant.

HIV-1 [2] = assay: HIV-1 p24 ELISA assay in PBMCs; type: cell-based; settings: Human immunodeficiency virus 1, PBMC, HIV-1, Retro
Protocol: as §1

[3] = Cytotoxicity (CC50) in MT-2 cells; type: cell-based; settings: human, MT-2, HIV-1 line
[4] = Cytotoxicity (CC50) in PBMCs; type: cell-based; settings: human, HIV-1 line
[5] = Safety pharmacology studies
From the text: (§2) Nonclinical safety testing further supports clinical development of Compound #10.

[6] = Toxicology study in rats through 28 days; type: in vivo; settings: doses and exposures in excess of therapeutic nonclinical doses
From the text: as §2

[7] = Toxicology study in dogs through 28 days; type: in vivo; settings: doses and exposures in excess of therapeutic nonclinical doses
From the text: as §2

Genotoxicity studies = assay: Genotoxicity studies
From the text: as §2

[8] = Phase 1a single-dose study in healthy volunteers; type: in vivo, human; settings: healthy subjects, single doses through 3 mg/kg (~210 mg), highest single dose tested
Protocol: Initial clinical evaluation of Compound #10 was performed in healthy volunteers.

[9] = Phase 1b and Phase 2 studies in patients with neoplasia (safety); type: in vivo, human; settings: 0.3 mg/kg/dose BID to 200 mg/dose TID, at least 4-6 weeks
Protocol: To date, doses of 0.3 mg/kg/dose (˜20 mg/dose) (n=6), 0.6 mg/kg/dose (˜40 mg/dose) (n=9), 1.2 mg/kg/dose (˜80 mg/dose) (n=12) BID have been tested for at least 4 weeks. In addition, 100 mg/dose BID (n=52), 100 mg/dose TID (n=6), 120 mg/dose TID (n=3), 160 mg/dose TID (N=3), and 200 mg/dose TID (n=3) have been tested for at least 6 weeks of continuous treatment.

Vero = settings: WNV line
in vitro [10] = settings: African green monkey, CC50 (μM)
in vitro [11] = settings: human
in vitro [12] = settings: African green monkey
in vitro [13] = settings: dog
[14] = Cytotoxicity (CC50) in HeLa cells; settings: human
[15] = Bioavailability in vivo from aqueous suspension; settings: administered in an aqueous suspension
Protocol: It is anticipated that Compound 1205 can be clinically administered via a solid-dosage form. For all the studies outlined herein, Compound 1205 was lyophilized prior to formulation to minimize batch-to-batch variations in particle-size.
The compound was dissolved in acetonitrile at a concentration of 15 mg/mL. An equal amount of water was added to bring the final concentration to 7.5 mg/mL in a 1:1 acetonitrile/water solution (v/v). The solution was frozen on the shelf of the freeze dryer for a minimum of 3 hours and then lyophilized. The resulting solid was determined to be amorphous by differential scanning calorimetry and polarized light microscopy. Suspensions were prepared by the addition of 0.5% HPMC with 1% Tween-80, followed by stirring and homogenization for 2 minutes.

SMILES: COc1ccc([C@H]2c3[nH]c4ccc(Cl)cc4c3CCN2C(=O)Oc2ccc(Cl)cc2)cc1 (racemic) [#10]
- concentration from which an accumulation of cells in S phase is observed (HT1080 cells; HT1080, 18 hours): ≥ 1 nM
- effect on cell cycle distribution (HT1080 cells; HT1080, 18 hours): induced a redistribution of the cycling characteristics of the cell population
- BrdU incorporated by individual cells during one-hour pulse versus DMSO control (HT 1080 cells): less BrdU
- percentage of cells residing in S-phase (HT 1080 cells; increasing doses (1-100 nM)): net increase
- percentage of spheroid cells that incorporated BrdU (cells in S-phase) (HT1080 spheroids; 24 or 48 hours, 10 nM or 50 nM): not significantly altered
- gross morphology of spheroids (HT1080 spheroids; day 5 of treatment, 10 nM or 50 nM): indistinguishable from one another
- morphology of spheroids (HT1080 spheroids; maintained in presence of compound for three weeks): no obvious morphological changes
- cell cycle distribution of HT1080 spheroids (HT1080 spheroids; treated for 24 hours): not affected
- cell cycle distribution of HT1080 spheroids (HT1080 spheroids; treated for 48 hours): not affected
- antiviral activity in HCV replicon systems (HCV genotype 1b replicon): potent in vitro inhibitory activity
- pIC50 (Adenovirus): < 6.00
- IC90 (Adenovirus): > 1000 nM
- pIC50 (HSV-1): < 6.00
- IC90 (HSV-1): > 1000 nM
- pIC50 (Influenza A): < 6.00
- IC90 (Influenza A): > 1000 nM
- pIC50 (Parainfluenza): 7.54
- IC90 (Parainfluenza): 44 nM
- pIC50 (RSV): 6.60
- IC90 (RSV): ≥ 160 nM
- pIC50 (Dengue 2): < 6.00
- IC90 (Dengue 2): > 1000 nM
- pIC50 (HIV-1 [1]): 7.66
- pIC50 (HIV-1 [2]): < 6.00
- CC50 [3]: 4.1 nM
- CC50 [4]: 680 nM
- safety pharmacology finding [5]: no adverse off-target effects
- tolerability in toxicology study [6]: good tolerability
- tolerability in toxicology study [7]: good tolerability
- genotoxicity finding (Genotoxicity studies): no evidence of genotoxic effects
- clinical safety [8]: acceptable safety
- clinical tolerability [9]: generally well tolerated
- CC50 (Vero): > 1000 nM
- CC50 (in vitro [10]): 0.7 µM and 0.083 µM
- CC50 (in vitro [11]): > 1000 nM
- CC50 (in vitro [12]): > 1000 nM
- CC50 (in vitro [13]): > 1000 nM
- CC50 [14]: > 1000 nM

SMILES: O=C(Oc1ccc(Cl)cc1)N1CCc2c([nH]c3ccc(Cl)cc23)C1c1ccc(OCCN2CCOCC2)cc1 (stereo not drawn) [Compound 331]
- % Cells In S-Phase (HT1080 cells): 16.4%

SMILES: O=C(Oc1ccc(Cl)cc1)N1CCc2c([nH]c3ccc(Cl)cc23)[C@@H]1c1ccc(OCC[C@H](O)CO)cc1 [Compound 1205]
- effect on cell cycle distribution (HT1080 cells; HT1080, 18 hours): induced a redistribution of the cycling characteristics of the cell population
- bioavailability in vivo [15]: bioavailable

SMILES: O=C(Oc1ccc(Cl)cc1)N1CCc2c([nH]c3ccc(Cl)cc23)C1c1ccc(OCCN2CCCCC2)cc1 (stereo not drawn) [Compound 1736]
- % Cells In S-Phase (HT1080 cells): 16.8%
